Here are results for three compounds from patent publication US20220252611A1 (priority 2019, published 2022).

Assay [1] has as its system alpha 2 adrenergic receptor. The assay is described as follows: Simultaneous MS binding assay, alpha 2 adrenergic receptor in rat cortex. To be noted: multiplexed with prazosine, FIG. 3A. The procedure: (§1) FIG. 3A is a graph showing a simultaneous binding experiment with alpha1 and alpha 2 beta-adrenoceptors. The target molecules are comprised in rat cortex, which contains both alpha 1 and alpha 2 beta adrenoceptors. The test compound is WB4101 and the ligands are prazosine and RX821002.
(§2) This example used target molecule comprising both alpha 1 and alpha 2 beta adeno receptors incubated with WB4101 (test compound) in the presence prazosine (ligand, or “marker” for alpha 1) and RX821002 (ligand, or “marker” for alpha 2) as shown in FIG. 3A. In FIG. 3B, yohimbine (test compound) was tested in the presence of in the presence prazosine (marker for alpha 1) and RX821002 (marker for alpha 2). The signals are indicated ns for non-specific.
(§3) Rat cortexes from Wistar male rats were harvested and transferred to 50 mM Tris-HCl (pH, 7.4) and homogenized by a polyton. […] The pellet was finally resuspended in a smaller volume of lyses buffer and the final protein concentration was determined according to the Bradford method using bovine serum albumin as a standard. […]
(§4) The filters were dried for one hour at 50° C. and cooled to room temperature before elution of ligands using a acetonitrile (contained 100 μM of antipyrine as an internal standard) via a vacuum manifold. Relative quantification of ligand in each sample was performed by UHPLC-MS-MS, the ratio area of ligand and internal standard was used. […]

In assay [2] the test system is alpha 1 adrenergic receptor. As to the kind of experiment: Simultaneous MS binding assay, alpha 1 adrenergic receptor in rat cortex. To be noted: multiplexed with RX821002, FIG. 3A. Here is the method:
as §1, §2, §3, §4

Assay [3] has as its target sodium channel (Na+) site 2 receptor. The assay is described as follows: MS binding assay of sodium channel, batrachotoxin as ligand, UHPLC-MS/MS. The settings on record: rat cortex membrane 200 μg/well, 60 minutes at 37° C.; second value column of Table 4 (SNR 8), taken as MS binding.
The target of the next assay is sodium channels. As to the kind of experiment: Radioligand binding assay of sodium (Na) channel. To be noted: rat cortex sodium channels; first value column of Table 4 (SNR 6), taken as radioligand binding.

`COC1(C2=NCCN2)COc2ccccc2O1` (stereo not shown) [RX821002]: the “specific binding to alpha 2 adrenergic receptor” value in assay [1] is “shown specifically to bind”.
Regarding `COc1cc2nc(N3CCN(C(=O)c4ccco4)CC3)nc(N)c2cc1OC` [prazosine], the “specific binding to alpha 1 adrenergic receptor” value in assay [2] is “shown specifically to bind”.
As a reminder, the EC50 is the midpoint of the concentration-response curve. The term Kd denotes a measure of binding affinity in units of concentration. Higher therefore signals lower affinity. The compound Batrachotoxin had an EC50 in assay [3] of 143 nM. The compound also showed a dissociation constant (Kd) at sodium channels of 91 nM.
